# ChEMBL document CHEMBL1201862, “PubChem BioAssay data set” (2004)
# Activity calls are given as the source filed them.
# Key:
# [1] = test system: Streptococcus sp. 'group A'; experiment: growth inhibition of control SK(-) GAS strain, dose response, counter-screen for streptokinase expression inhibitor project, luminescence, kanamycin, BacTiterGlo, confirmation (AID 1900); assay type: functional, organism-based
# Streptococcus = experiment: Group A Streptococcus viability loss, dose response, counter-screen for streptokinase expression inhibitor project, luminescence, BacTiterGlo (AID 1915); assay type: functional, organism-based;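 also: potency for reduction of bacterial viability or growth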
# [2] = Luminescence-based counterscreen assay for KLF5 inhibitors: dose response cell-based high throughput screening assay to identify cytotoxic compounds using the IEC-6 intestinal epithelial cell line. [Related pubchem assays: 1700 (Primary screen.), 1834 (Confirmation screen.), 1858 (Summary AID.), 1905 (Counterscreen.)]; assay type: functional
# [3] = A549 cell cytotoxicity, dose response, cytotoxicity control, plate reader, cherry-pick, antagonist series (AID 743412); assay type: functional, cell-based
# [4] = MC4R antagonists, dose response, counter-screen for LGR2 antagonist project, cell-based, plate reader, cherry pick (AID 743444); assay type: functional;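 also: transfected HEK 293 cells stimulated with alpha-MSH peptide; potency of inhibitors of the alpha-MSH evoked signal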
# [5] = LGR2 antagonists, dose response, cell-based, HEK293, CRE-luciferase reporter, cherry pick, set 2 (AID 743343); assay type: functional;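 also: transfected cells were stimulated with diluted bursicon conditioned medium after compound addition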
# [6] = HEK293 cell cytotoxicity, dose response, cytotoxicity control, plate reader, cherry-picked samples (AID 743446); assay type: functional, cell-based
# [7] = HepG2 cell cytotoxicity, dose response, cytotoxicity control, plate reader, cherry-pick, antagonist series (AID 743416); assay type: functional, cell-based
# Streptokinase A = molecular target: T1, Streptokinase A (Streptococcus pyogenes serotype M1, UniProt P10520); experiment: S. pyogenes streptokinase expression inhibitors, potency, dose response, plasminogen activation absorbance, OD405 (AID 1914); assay type: functional, Streptococcus pyogenes M1 GAS;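 also: secreted streptokinase activity via plasminogen activation per viability signal from cell pellet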
# T1 sequence (P10520 whole entry): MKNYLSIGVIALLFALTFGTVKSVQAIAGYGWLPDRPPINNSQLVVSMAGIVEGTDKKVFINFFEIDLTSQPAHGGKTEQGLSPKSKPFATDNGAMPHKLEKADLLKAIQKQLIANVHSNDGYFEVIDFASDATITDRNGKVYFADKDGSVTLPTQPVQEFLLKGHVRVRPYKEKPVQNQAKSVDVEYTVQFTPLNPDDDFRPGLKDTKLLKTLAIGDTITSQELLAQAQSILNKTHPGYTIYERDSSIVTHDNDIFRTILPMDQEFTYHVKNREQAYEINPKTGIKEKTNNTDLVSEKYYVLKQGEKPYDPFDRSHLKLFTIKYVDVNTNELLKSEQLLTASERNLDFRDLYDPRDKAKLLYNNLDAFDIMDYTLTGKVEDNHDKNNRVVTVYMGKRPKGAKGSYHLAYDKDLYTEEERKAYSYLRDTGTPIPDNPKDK
# [8] = ADAM10 protease inhibitors, dose response, selectivity assay for ADAM17 exosite inhibitor project, biochemical, FRET peptide substrate, recombinant human ADAM10 (AID 743259);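 also: ADAM10 enzyme cleaving a FRET peptide substrate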
# [9] = molecular target: Disintegrin and metalloproteinase domain-containing protein 17 (Homo sapiens, UniProt P78536); experiment: exosite inhibitors of ADAM17, dose response, biochemical (AID 743260)
# [10] = THP-1 cell cytotoxicity, dose response, cytotoxicity control for Vif-APOBEC3G degradation inhibitor project, THP-1 cells (AID 1117359); assay type: functional; conditions: Human immunodeficiency virus 1, THP-1
# HEK293 = experiment: HEK293T cell cytotoxicity, dose response, cytotoxicity control, ATP luminescence, cherry-pick samples (AID 687005); assay type: functional, cell-based; conditions: Homo sapiens;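 also: cells exposed to compound for 48 hours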
# [11] = HEK293 Cytotoxicity Assay Measured in Cell-Based System Using Plate Reader - 7071-01_Inhibitor_Dose_CherryPick_Activity_Set2.; assay type: functional
# [12] = Counterscreen for inhibitors of Trypanosoma brucei methionyl tRNA synthetase (MetRS): Luminescence-based cell-based high throughput dose response assay to identify compounds that are cytotoxic to Jurkat human T lymphocyte cells.; assay type: functional
# [13] = molecular target: T2, Methionyl-tRNA synthetase, putative (Trypanosoma brucei brucei, UniProt Q38C91); assay type: functional, Trypanosoma brucei brucei strain 927/4 GUTat10.1
# T2 sequence (Q38C91 whole entry): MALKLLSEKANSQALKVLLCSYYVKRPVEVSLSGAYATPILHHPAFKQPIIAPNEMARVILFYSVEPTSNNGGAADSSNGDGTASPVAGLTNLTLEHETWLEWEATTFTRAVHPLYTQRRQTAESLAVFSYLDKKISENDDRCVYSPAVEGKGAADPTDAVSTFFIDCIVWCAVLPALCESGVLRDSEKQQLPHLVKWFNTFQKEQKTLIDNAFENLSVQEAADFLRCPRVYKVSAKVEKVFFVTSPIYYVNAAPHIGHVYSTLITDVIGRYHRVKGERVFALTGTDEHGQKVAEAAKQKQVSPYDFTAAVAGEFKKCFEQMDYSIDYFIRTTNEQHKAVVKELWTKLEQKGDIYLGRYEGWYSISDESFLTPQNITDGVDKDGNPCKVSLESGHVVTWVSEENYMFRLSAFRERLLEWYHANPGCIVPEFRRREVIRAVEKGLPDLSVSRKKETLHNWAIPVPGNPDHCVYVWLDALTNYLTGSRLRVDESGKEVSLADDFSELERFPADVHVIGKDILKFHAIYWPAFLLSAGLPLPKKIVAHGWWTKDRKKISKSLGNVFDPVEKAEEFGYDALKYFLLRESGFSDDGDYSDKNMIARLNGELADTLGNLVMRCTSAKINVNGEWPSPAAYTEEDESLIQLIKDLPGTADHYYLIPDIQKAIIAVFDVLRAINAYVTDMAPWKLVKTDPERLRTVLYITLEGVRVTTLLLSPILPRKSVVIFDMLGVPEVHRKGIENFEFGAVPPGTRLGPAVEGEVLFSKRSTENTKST
# [14] = molecular target: T2, Methionyl-tRNA synthetase, putative; assay type: functional, Trypanosoma brucei brucei strain 927/4 GUTat10.1; remark: listed apart in the source
# [15] = cytotoxicity in HPDE-C7 cells, cell-based, fluorescence, HTS (AID 430); assay type: functional; conditions: Homo sapiens
# [16] = cytotoxicity in KRAS-transformed pancreatic duct cells, primary screen, cell-based, fluorescence, HTS (AID 431); assay type: functional; conditions: Homo sapiens;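 also: cell line used: HPDE-C7K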
# [17] = molecular target: SWI/SNF-related matrix-associated actin-dependent regulator of chromatin subfamily A member 2 (Homo sapiens, UniProt P51531); experiment: Luminescence-based cell-based high throughput dose response assay to identify activators of the function of SWI/SNF related, matrix associated, actin dependent regulator of chromatin, subfamily a, member 2 (SMARCA2, BRM).; assay type: functional
# [18] = Counterscreen for activators of the function of SWI/SNF related, matrix associated, actin dependent regulator of chromatin, subfamily a, member 2 (SMARCA2, BRM): Luminescence-based cell-based high throughput dose response assay to identify non-selective compounds using the VP16 reporter assay.; assay type: functional
# [19] = ZM109 Env clade C HIV-1 fusion inhibitors, dose response, HeLa effector, CEM target cells, luciferase, cherry-pick (AID 652058); assay type: functional, cell-based
# [20] = CEM21 lymphoblast cell cytotoxicity, dose response, cytotoxicity control for viral fusion inhibitor project, CellTiter-Glo luminescence, cherry-picked (AID 652042); assay type: functional, cell-based;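 also: potency for signal decrease meaning cytotoxicity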
# [21] = inhibitors of clade B AD8 Env fusion, dose response, cell-based, cherry-pick (AID 652062); assay type: functional;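 also: luciferase signal from cell-cell fusion driven by HIV-1 clade B AD8 Env; potency is for inhibitors of fusion seen as a drop in luminescence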
# [22] = inhibitors of HIV Env-driven cell fusion, dose response, cherry-pick (AID 652057); assay type: functional, cell-based
# SWI/SNF-related matrix-associated actin-dependent regulator of chromatin subfamily A member 2, sequence (P51531 whole entry): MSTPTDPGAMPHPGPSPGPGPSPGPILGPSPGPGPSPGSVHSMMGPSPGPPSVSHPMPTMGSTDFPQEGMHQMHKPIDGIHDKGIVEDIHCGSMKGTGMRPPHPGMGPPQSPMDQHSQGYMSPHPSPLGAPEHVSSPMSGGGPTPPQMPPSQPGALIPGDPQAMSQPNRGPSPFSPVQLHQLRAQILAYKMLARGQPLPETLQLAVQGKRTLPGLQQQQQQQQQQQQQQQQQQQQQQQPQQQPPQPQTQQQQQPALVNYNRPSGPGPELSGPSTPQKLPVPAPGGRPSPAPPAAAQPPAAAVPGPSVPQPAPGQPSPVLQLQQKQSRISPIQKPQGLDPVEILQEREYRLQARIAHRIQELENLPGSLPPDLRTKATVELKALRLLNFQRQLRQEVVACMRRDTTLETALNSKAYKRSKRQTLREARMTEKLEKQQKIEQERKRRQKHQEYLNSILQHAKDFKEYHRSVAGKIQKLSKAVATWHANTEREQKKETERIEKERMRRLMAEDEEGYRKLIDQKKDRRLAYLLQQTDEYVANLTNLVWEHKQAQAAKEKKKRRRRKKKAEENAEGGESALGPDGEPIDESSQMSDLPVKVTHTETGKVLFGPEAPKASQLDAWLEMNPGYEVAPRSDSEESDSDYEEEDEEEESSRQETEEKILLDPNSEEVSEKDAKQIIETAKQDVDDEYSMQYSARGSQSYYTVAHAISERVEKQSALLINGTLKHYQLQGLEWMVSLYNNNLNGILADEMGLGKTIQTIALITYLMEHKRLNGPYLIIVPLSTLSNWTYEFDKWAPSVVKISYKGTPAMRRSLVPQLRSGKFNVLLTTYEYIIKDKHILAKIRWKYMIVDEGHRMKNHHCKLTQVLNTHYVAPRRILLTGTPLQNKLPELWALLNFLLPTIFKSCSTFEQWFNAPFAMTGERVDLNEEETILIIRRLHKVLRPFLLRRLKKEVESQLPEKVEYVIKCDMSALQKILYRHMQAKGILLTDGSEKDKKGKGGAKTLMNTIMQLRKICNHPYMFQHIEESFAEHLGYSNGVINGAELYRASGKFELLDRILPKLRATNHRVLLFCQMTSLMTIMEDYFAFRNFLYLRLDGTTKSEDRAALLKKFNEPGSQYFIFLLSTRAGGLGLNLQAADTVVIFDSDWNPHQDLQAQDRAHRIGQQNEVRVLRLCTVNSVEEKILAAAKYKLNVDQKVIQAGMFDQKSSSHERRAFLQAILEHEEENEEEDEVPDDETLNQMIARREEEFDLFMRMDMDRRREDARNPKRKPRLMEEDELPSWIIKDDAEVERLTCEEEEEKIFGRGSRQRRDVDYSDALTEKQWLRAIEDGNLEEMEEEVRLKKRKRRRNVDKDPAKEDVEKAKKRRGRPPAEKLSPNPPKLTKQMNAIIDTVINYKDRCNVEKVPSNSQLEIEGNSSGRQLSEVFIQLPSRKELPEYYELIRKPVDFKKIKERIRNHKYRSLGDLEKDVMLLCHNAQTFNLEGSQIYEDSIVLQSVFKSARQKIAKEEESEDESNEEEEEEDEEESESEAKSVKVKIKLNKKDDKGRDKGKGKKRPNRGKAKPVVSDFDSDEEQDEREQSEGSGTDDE
# Disintegrin and metalloproteinase domain-containing protein 17, sequence (P78536 whole entry, the tested form may be a part): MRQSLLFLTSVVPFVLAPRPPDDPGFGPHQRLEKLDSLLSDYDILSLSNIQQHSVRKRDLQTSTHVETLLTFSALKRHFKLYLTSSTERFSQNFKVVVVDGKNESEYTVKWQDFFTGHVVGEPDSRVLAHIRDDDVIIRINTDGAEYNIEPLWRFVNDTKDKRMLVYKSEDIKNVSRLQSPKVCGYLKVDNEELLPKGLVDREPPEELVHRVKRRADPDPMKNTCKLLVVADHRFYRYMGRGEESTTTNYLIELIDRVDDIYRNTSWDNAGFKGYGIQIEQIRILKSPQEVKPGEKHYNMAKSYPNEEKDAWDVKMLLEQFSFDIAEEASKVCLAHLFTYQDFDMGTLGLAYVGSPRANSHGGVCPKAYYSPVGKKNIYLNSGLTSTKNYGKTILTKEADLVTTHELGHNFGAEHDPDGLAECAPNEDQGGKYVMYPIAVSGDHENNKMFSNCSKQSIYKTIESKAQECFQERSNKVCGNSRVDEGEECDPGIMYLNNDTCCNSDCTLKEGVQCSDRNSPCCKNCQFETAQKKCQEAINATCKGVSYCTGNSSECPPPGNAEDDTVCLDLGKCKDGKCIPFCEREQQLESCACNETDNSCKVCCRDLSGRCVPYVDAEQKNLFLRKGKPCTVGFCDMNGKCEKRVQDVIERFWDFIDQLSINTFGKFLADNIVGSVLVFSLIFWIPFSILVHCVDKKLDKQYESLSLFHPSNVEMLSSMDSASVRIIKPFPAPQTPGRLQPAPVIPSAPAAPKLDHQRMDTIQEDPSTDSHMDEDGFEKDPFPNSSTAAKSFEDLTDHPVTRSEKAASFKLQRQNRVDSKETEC
smiles,measurement,setting,value
CC(C)Oc1ccc(C(=O)Nc2nc3ccccc3[nH]2)cc1,EC50,[1],3.4 µM (active)
same,EC50,Streptococcus,28.6 µM (active)
same,IC50,[2],17.8 µM (not active)
same,AC50,[3],18.8 µM (active)
same,AC50,[4],2.16 µM (active)
same,AC50,[5],1.2 µM (active)
same,AC50,[6],16.2 µM (active)
same,AC50,[7],15.1 µM (active)
same,EC50,Streptokinase A,> 150 µM (not active)
Cc1nc2ccc(NC(=O)c3ccc(S(=O)(=O)N(C)c4ccccc4)cc3)cc2s1,IC50,[8],> 69.5 µM (inactive)
same,IC50,[9],> 69.5 µM (inactive)
Cc1ccc(N(CC(=O)NCCSCc2ccco2)S(=O)(=O)c2ccc(F)cc2)cc1,CC50,[10],> 40 µM (active)
same,AC50,HEK293,31.9 µM (active)
same,AC50,[11],31.9 µM (active)
Oc1nc(CSc2ncc(C(F)(F)F)cc2Cl)nc2ccccc12,IC50,[12],35.7 µM (inactive)
same,IC50,[13],5.35 µM (active)
same,IC50,[14],14.4 µM (inactive)
Cc1ccc2nc(C(F)(F)F)c(C#N)c(N)c2c1,EC50,[15],> 20 µM (not active)
same,EC50,[16],7.2 µM (active)
same,AC50,[3],24.2 µM (active)
same,AC50,[5],22.9 µM (active)
same,AC50,[6],> 52 µM (inactive)
same,AC50,[7],16 µM (active)
Brc1ccc2[nH]c3c(NCc4ccccn4)ncnc3c2c1,IC50,[12],83.3 µM (inactive)
same,IC50,[13],3.47 µM (active)
same,IC50,[14],5.71 µM (active)
N#CCn1cnc2sc(-c3ccccc3)cc2c1=O,EC50,[17],> 91.2 µM (inactive)
same,EC50,[18],> 91.2 µM (inactive)
CC(C)(C)CC(=O)O/N=C(\N)c1ccccn1,EC50,[17],> 91.1 µM (inactive)
same,EC50,[18],> 91.1 µM (inactive)
COc1ccc(C(=O)Nc2nc(-c3ccc(S(=O)(=O)N4CCOCC4)cc3)cs2)cc1,AC50,[19],0.664 µM (active)
same,AC50,[20],40.3 µM (active)
same,AC50,[21],7.62 µM (active)
same,AC50,[22],63.4 µM (active)
